From EP2608671B1, “COMPOUNDS FOR TREATMENT OF CANCER” (Gtx, Inc., priority 2010, dated 2012)
Where two headings read alike, the source gives them in different places.

Key:
[1] = system: A375; assay: SRB cell growth inhibition (cytotoxicity) assay; type: cell-based, human
[2] = system: PC-3; assay: cells
Excerpt: (§1) The only compounds which belong to the invention are the ones falling under the scope of formula (XI).
Cells were stained with SRB solution.
Cells. […] Cells between the third and fifth passages were used for experiments.
Cell growth inhibition studies. […] Cells were stained with sulphorhodamine B (SRB) solution.

[3] = system: LNCaP; assay: cells; conditions: Homo sapiens
[4] = system: PPC-1; assay: cells; conditions: Homo sapiens
[5] = system: DU 145; assay: cells; conditions: Homo sapiens
[6] = system: B16-F1; assay: SRB cell growth inhibition (cytotoxicity) assay; type: cell-based, mouse
Excerpt: as §1

[7] = Homo sapiens, A-375, 96 h; read-out: IC50 ± SEM (nM), A375
[8] = Homo sapiens, PC-3, 96 h, read-out: IC50 ± SEM (nM), PC-3
[9] = 96 h, read-out: IC50 ± SEM (nM), LNCaP
[10] = PPC-1, 96 h, read-out: IC50 ± SEM (nM), PPC-1
[11] = DU-145, 96 h, read-out: IC50 ± SEM (nM), DU 145
[12] = Mus musculus, B16-F1; read-out: IC50 ± SEM (nM), B16-F1
[13] = Homo sapiens, PC-3, 96 h, read-out: IC50 (nM), PC-3
[14] = Homo sapiens, PC-3, read-out: IC50 (nM), PC-3
[15] = PPC-1, read-out: IC50 (nM), PPC-1
[16] = DU-145, read-out: IC50 (nM), DU 145
[17] = DU-145, 96 h, read-out: IC50 ± SEM (nM) Du 145
[18] = Homo sapiens, A-375, 96 h, read-out: IC50 ± SEM (nM), A375
[19] = Mus musculus, B16-F1, read-out: IC50 ± SEM (nM), B16-F1

## COc1cc(C(=O)c2cccc(-c3ccccc3)c2)cc(OC)c1OC [1a, Biphenyl-3-yl(3,4,5-trimethoxyphenyl)methanone]
[1]; [7]
  IC50: 87 ± 15 nM
[2]; [8]
  IC50: 81 nM
[3]; [9]
  IC50: 234 nM
[4]; [10]
  IC50: 85 nM
[5]; [11]
  IC50: 178 nM
[6]; [12]
  IC50: 500 ± 200 nM

## O=C(c1cccc(F)c1)c1c[nH]c(-c2ccccc2)n1 [12ag, (3-fluorophenyl)(2-phenyl-1H-imidazol-4-yl)methanone]
[2]; [13]
  IC50: > 10000 nM

## COc1cc(C(=O)c2cn(C(c3ccccc3)(c3ccccc3)c3ccccc3)c(Nc3ccccc3)n2)cc(OC)c1OC [e, (2-(Phenylamino)-1-trityl-1H-imidazol-4-yl)(3,4,5 trimethoxyphenyl)methanone]
[2]; [8]
  IC50: > 1000 nM
[3]; [9]
  IC50: > 1000 nM
[4]; [10]
  IC50: > 1000 nM
[5]; [11]
  IC50: > 1000 nM

## COc1cc(/C(=N/N)c2csc(-c3ccccc3)n2)cc(OC)c1OC [2d-cis, (Z)-4-(hydrazono(3,4,5-trimethoxyphenyl)methyl)-2-phenylthiazole]
[1]; [7]
  IC50: 900 ± 300 nM
[2]; [8]
  IC50: 1120 nM
[3]; [9]
  IC50: 1800 nM
[4]; [10]
  IC50: 872 nM
[5]; [11]
  IC50: 1210 nM
[6]; [12]
  IC50: 2000 ± 800 nM

## CN(C)c1ccc(-c2nc(C(=O)c3ccc(F)cc3)c[nH]2)cc1 [12gb, (2-(4-(dimethylamino)phenyl)-1H-imidazol-4-yl)(4-fluorophenyl)methanone]
[2]; [8]
  IC50: 81 ± 3 nM
[3]; [9]
  IC50: 57 ± 6 nM
[4]; [10]
  IC50: 45 ± 0.3 nM

## COc1cc(C(=O)c2csc(Nc3ccc(Cl)cc3)n2)cc(OC)c1OC [5d, (2-((4-Chlorophenyl)amino)thiazol-4-yl)(3,4,5-trimethoxyphenyl)methanone]
[1]; [7]
  IC50: 25 ± 7 nM
[2]; [8]
  IC50: 33 ± 1 nM
[3]; [9]
  IC50: 45 ± 1 nM
[4]; [10]
  IC50: 36 ± 1 nM
[5]; [11]
  IC50: 73 ± 1 nM

## O=S(=O)(c1ccc(F)cc1)N1CCc2ccc(Br)cc2C1 [compound 42, 7-Bromo-2-(4-fluoro-benzenesulfonyl)-1,2,3,4-tetrahydro-isoquinoline]
[2]; [14]
  IC50: 23800 nM
[3]; read-out: IC50 (nM), LNCaP
  IC50: 43600 nM
[4]; [15]
  IC50: > 20000 nM
[5]; [16]
  IC50: 24900 nM

## O=C(c1ccc(F)cc1)c1c[nH]c(-c2ccc(OCc3ccccc3)cc2)n1 [12jb, (2-(4-(benzyloxy)phenyl)-1H-imidazol-4-yl)(4-fluorophenyl)methanone]
[2]; [8]
  IC50: 79 ± 0.4 nM
[3]; [9]
  IC50: 44 ± 7 nM
[4]; [10]
  IC50: 43 ± 0.2 nM
[5]; [17]
  IC50: 60 ± 3 nM

## COc1ccc(C(=O)c2c[nH]c(-c3ccccc3)n2)cc1OC [12ae, (3,4-dimethoxyphenyl)(2-phenyl-1H-imidazol-4-yl)methanone]
[2]; [13]
  IC50: > 10000 nM

## O=S(=O)(c1ccc(F)cc1)N1CCCc2ccc(Br)cc21 [compound 43, 7-Bromo-1-(4-fluoro-benzenesulfonyl)-1,2,3,4-tetrahydroquinoline]
[2]; [14]
  IC50: 14700 nM
[3]; read-out: IC50 (nM), LNCaP
  IC50: 12700 nM
[4]; [15]
  IC50: > 20000 nM
[5]; [16]
  IC50: 17200 nM

## COc1cc(C(=O)c2csc(-c3cc4ccccc4[nH]3)n2)cc(OC)c1OC [62a, (2-(1H-indol-2-yl)thiazol-4-yl)(3,4,5-trimethoxyphenyl)methanone]
[1]; [18]
  IC50: 19 ± 9 nM
[2]; [8]
  IC50: 24 nM
[3]; [9]
  IC50: 28 nM
[4]; [10]
  IC50: 28 nM
[5]; [11]
  IC50: 32 nM
[6]; [19]
  IC50: 43 ± 21 nM

## COc1cc(C(O)c2csc(-c3ccccc3)n2)cc(OC)c1OC (stereo not shown) [2b, (2-Phenylthiazol-4-yl)(3,4,5-trimethoxyphenyl)methanol]
[1]; [7]
  IC50: > 30000 nM
[2]; [8]
  IC50: > 10000 nM
[3]; [9]
  IC50: > 10000 nM
[4]; [10]
  IC50: > 10000 nM
[5]; [11]
  IC50: > 10000 nM
[6]; [12]
  IC50: > 30000 nM

## COc1cc(/C=C\c2csc(-c3ccccc3)n2)cc(OC)c1OC [3a, (Z)-2-Phenyl-4-(3,4,5-trimethoxystyryl)thiazole]
[1]; [18]
  IC50: 46500 ± 23300 nM
[2]; [8]
  IC50: > 10000 nM
[3]; [9]
  IC50: > 10000 nM
[4]; [10]
  IC50: > 10000 nM
[5]; [11]
  IC50: > 10000 nM
[6]; [19]
  IC50: 11000 ± 2800 nM

## COc1cc(C(=O)c2coc(-c3ccccc3)n2)cc(OC)c1OC [36a, (2-Phenyl-oxazol-4-yl)-(3,4,5-trimethoxy-phenyl)-methanone]
[1]; [7]
  IC50: 300 ± 100 nM
[2]; [8]
  IC50: 294 nM
[3]; [9]
  IC50: 310 nM
[4]; [10]
  IC50: 324 nM
[5]; [11]
  IC50: 292 nM
[6]; [12]
  IC50: 600 ± 200 nM

## O=S(=O)(c1ccc(F)cc1)N1CCCc2ccc(-c3ccc4[nH]ccc4c3)cc21 [compound 41, 1-(4-Fluoro-benzenesulfonyl)-7-(1H-indol-5-yl)-1,2,3,4-tetrahydroquinoline]
[2]; [14]
  IC50: 18200 nM
[3]; read-out: IC50 (nM), LNCaP
  IC50: 15800 nM
[4]; [15]
  IC50: > 20000 nM
[5]; [16]
  IC50: 17000 nM

## COc1cc(C(=O)Nc2csc(-c3ccccc3)n2)cc(OC)c1OC [2h, 3,4,5-Trimethoxy-N-(2-phenylthiazol-4-yl)benzamide]
[1]; [7]
  IC50: > 30000 nM
[2]; [8]
  IC50: > 10000 nM
[3]; [9]
  IC50: > 10000 nM
[4]; [10]
  IC50: > 10000 nM
[5]; [11]
  IC50: > 10000 nM
[6]; [12]
  IC50: > 30000 nM

## COc1cc(C(=O)c2c[nH]c(-c3ccc(F)cc3)n2)cc(OC)c1OC [12ba, (2-(4-fluorophenyl)-1H-imidazol-4-yl)(3,4,5-trimethoxyphenyl)methanone]
[2]; [8]
  IC50: 169 ± 12 nM
[3]; [9]
  IC50: 98 ± 2 nM
[4]; [10]
  IC50: 81 ± 1 nM
[5]; [17]
  IC50: 132 ± 24 nM

## COc1cc(C(=O)n2ccnc2-c2ccccc2)cc(OC)c1OC [12aaa, (2-phenyl-1H-imidazol-1-yl)(3,4,5-trimethoxyphenyl)methanone]
[2]; [13]
  IC50: > 10000 nM

## O=[N+]([O-])c1ccc(-c2nccn2S(=O)(=O)c2ccccc2)cc1 [10x, 2-(4-nitrophenyl)-1-(phenylsulfonyl)-1H-imidazole]
[2]; [13]
  IC50: > 10000 nM

## COc1cc(NC(=O)c2csc(-c3ccccc3)n2)cc(OC)c1OC [2g, 2-Phenyl-N-(3,4,5-trimethoxyphenyl)thiazole-4-carboxamide]
[1]; [7]
  IC50: > 30000 nM
[2]; [8]
  IC50: > 10000 nM
[4]; [10]
  IC50: > 10000 nM
[5]; [11]
  IC50: > 10000 nM
[6]; [12]
  IC50: > 30000 nM

## COc1ccc(-c2nc(C(=O)c3ccc(F)cc3)c[nH]2)cc1OC [12hb, (2-(3,4-dimethoxyphenyl)-1H-imidazol-4-yl)(4-fluorophenyl)methanone]
[1]; Homo sapiens, A-375; A375 melanoma cells, 48 h, SRB; read-out: IC50 ± SEM (nM) A375
  IC50: 10000 nM
[2]; [8]
  IC50: 10000 nM
[3]; [9]
  IC50: 2530 nM
[4]; [10]
  IC50: 2170 ± 48 nM
[5]; [17]
  IC50: 10000 nM

## COc1cc(C(=O)c2c[nH]c(-c3ccc(OCc4ccccc4)cc3)n2)cc(OC)c1OC [12ja, (2-(4-(benzyloxy)phenyl)-1H-imidazol-4-yl)(3,4,5-trimethoxyphenyl)methanone]
[2]; [8]
  IC50: 10000 nM
[3]; [9]
  IC50: 2790 nM
[4]; [10]
  IC50: 2840 nM
[5]; [17]
  IC50: 10000 nM

## COc1cc(C(=O)[C@@H]2CSC(c3ccc(O[Si](C)(C)C(C)(C)C)cc3)=N2)cc(OC)c1OC [58a, (R)-(2-(4-(tert-Butyldimethylsilyloxy)phenyl)-4,5-dihydrothiazol-4-yl)(3,4,5-trimethoxyphenyl)methanone]
[1]; [18]
  IC50: 700 ± 300 nM
[2]; [8]
  IC50: 183 ± 24 nM
[3]; [9]
  IC50: 549 nM
[4]; [10]
  IC50: 246 ± 8 nM
[5]; [11]
  IC50: 434 ± 30 nM
[6]; [19]
  IC50: 500 ± 200 nM

## O=S(=O)(c1ccccc1)n1ccnc1-c1ccccc1 [10a, 2-phenyl-1-(phenylsulfonyl)-1H-imidazole]
[2]; [13]
  IC50: > 10000 nM

## Fc1ccc(-c2ccc3ccnc(-c4ccc(F)cc4)c3c2)cc1 [compound 40, 1,7-Bis-(4-fluoro-phenyl)-isoquinoline]
[2]; [14]
  IC50: 19600 nM
[3]; read-out: IC50 (nM), LNCaP
  IC50: 13400 nM
[4]; [15]
  IC50: 6200 nM
[5]; [16]
  IC50: 18400 nM

## c1ccc(Nc2nccn2C(c2ccccc2)(c2ccccc2)c2ccccc2)cc1 [d, N-Phenyl-1-trityl-1H-imidazol-2-amine]
[2]; [8]
  IC50: > 1000 nM
[3]; [9]
  IC50: > 1000 nM
[4]; [10]
  IC50: > 1000 nM
[5]; [11]
  IC50: > 1000 nM

## COc1ccc(C(=O)n2ccnc2-c2ccccc2)cc1 [12aba]
[2]; read-out: IC50 (nM), PC-3, SRB, 96 h, Table 11
  IC50: > 10000 nM

## Clc1nccc2ccc(-c3ccc4[nH]ccc4c3)cc12 [6d, 1-Chloro-7-(1H-indol-5-yl)-isoquinoline]
[2]; Homo sapiens, PC-3, read-out: IC50 ±SEM (nM), PC-3
  IC50: 908 nM
[3]; read-out: IC50 ±SEM (nM), LNCaP
  IC50: 703 nM
[4]; PPC-1, read-out: IC50 ±SEM (nM), PPC-1
  IC50: 929 nM
[5]; DU-145, read-out: IC50 ±SEM (nM), DU 145
  IC50: 1640 nM

## COc1cc(C(=O)c2c[nH]c(-c3ccc(N(C)C)cc3)n2)cc(OC)c1OC [12ga, (2-(4-(dimethylamino)phenyl)-1H-imidazol-4-yl)(3,4,5-trimethoxyphenyl)methanone]
[2]; [8]
  IC50: 92 ± 4 nM
[3]; [9]
  IC50: 58 ± 2 nM
[4]; [10]
  IC50: 67 ± 0.7 nM
[5]; [17]
  IC50: 95 ± 1 nM

## COc1ccc(-c2nc(C(=O)c3cc(OC)c(OC)c(OC)c3)c[nH]2)cc1 [12ca, (2-(4-methoxyphenyl)-1H-imidazol-4-yl)(3,4,5-trimethoxyphenyl)methanone]
[2]; [8]
  IC50: 45 ± 1 nM
[4]; [10]
  IC50: 34 ± 0.3 nM
[5]; [17]
  IC50: 48 ± 0.5 nM

## O=S(=O)(c1ccccc1)n1ccnc1-c1ccc(OCc2ccccc2)cc1 [10j, 2-(4-(benzyloxy)phenyl)-1-(phenylsulfonyl)-1H-imidazole]
[2]; [13]
  IC50: > 10000 nM

## COc1cc(C(=O)c2cn(Cc3ccccc3)c(-c3ccc(C)cc3)n2)cc(OC)c1OC [12daa, (1-Benzyl-2-(p-tolyl)-1H-imidazol-4-yl)(3,4,5-trimethoxyphenyl)methanone]
[2]; [8]
  IC50: 466 nM
[3]; [9]
  IC50: 683 nM
[4]; [10]
  IC50: 778 nM
[5]; [17]
  IC50: 1500 nM
